# Measured values: patent US20250205265A1, “ASPERULOSIDE AS AN AGENT FOR IMPROVING VASCULAR AND METABOLIC FUNCTION IN OBESITY: ROLE OF NRF2 ACTIVATION” (The Chinese University of Hong Kong, priority 2023, published 2025)
# “Also recorded” adds a separate entry of the source. Like-named read-outs stand apart in the source and are kept apart here.
# Key:
# [1] = system: high-fat diet (HFD)-fed mice; test: Vascular function by wire myograph, aortas of obese mice; type: in vivo; settings: ASP 50 mg/kg oral gavage daily for seven weeks
# Procedure: (§1) After induction of obesity in C57BL/6 male mice fed with high fat diet for twelve weeks, they were treated daily with ASP (50 mg/kg) via oral gavage for seven weeks in vivo study. C57BL/6 mice aortae were used for ex vivo study and endothelial cells were used for in vitro study. Vascular function was determined by wire myograph. DHE and MitoSOX staining were used to detect ROS levels. QPCR, aortic en-face immunofluorescence staining, and Western blotting were used to analyze mRNA and protein expressions. Small interfering (si)RNA of Nrf2 and HO-1, inhibitors of Nrf2 (ML385, Cat. No.: HY-100523) and HO-1 (OB-24, HY-118487) were used to elucidate the mechanistic pathway of ASP's action.
# (§2) After induction of obesity in C57BL/6 male mice fed with the high-fat diet for twelve weeks, they were treated daily with ASP (50 mg/kg) via oral gavage for seven weeks in vivo study. C57BL/6 mice aortae were used for ex vivo studies. Endothelial cells, HepG2 and primary adipocytes were used for in vitro studies. Vascular function was determined by wire myograph. H&E staining was employed for histological examination. Oil Red O staining was used to determine lipid droplets in tissues and cells. DHE and MitoSOX staining were used to detect ROS levels. […] ARE binding activity was determined by Dual luciferase reporter assay. […]
# ROS = test: DHE staining of ROS in obese mice aortic sections; type: in vivo; settings: ASP 50 mg/kg oral gavage daily for seven weeks
# Procedure: as §1, §2
# VCAM-1 = test: Real-time PCR of VCAM-1 in aortas of obese mice; type: in vivo
# Procedure: as §1, §2
# Nrf2 [2] = test: Real-time PCR of Nrf2 in obese mice aortas; type: in vivo
# Procedure: as §1, §2
# C57BL/6 mice aortae = test: Ex vivo wire myograph, IL-1β-impaired EDRs in mouse aortas; settings: for EDRs: IL-1β
# Procedure: as §1
# (§3) After induction of obesity in C57BL/6 male mice fed with the high-fat diet for twelve weeks, they were treated daily with ASP (50 mg/kg) via oral gavage for seven weeks in vivo study. C57BL/6 mice aortae were used for ex vivo studies. Endothelial cells, HepG2 and primary adipocytes were used for in vitro studies. Vascular function was determined by wire myograph. H&E staining was employed for histological examination. Oil Red O staining was used to determine lipid droplets in tissues and cells. DHE and MitoSOX staining were used to detect ROS levels. QPCR, aortic en-face immunofluorescence staining, and Western blotting were used to analyze mRNA and protein expressions. ARE binding activity was determined by Dual luciferase reporter assay. Small interfering (si)RNA of Nrf2 and HO-1, inhibitors of Nrf2 (ML385, Cat. No.: HY-100523) and HO-1 (OB-24, HY-118487) were used to elucidate the mechanistic pathway of ASP's action.
# HO-1 [3] = test: Aortic en-face immunofluorescence staining of HO-1; design: species or system mice
# Procedure: as §1, §3
# endothelial cells = test: ROS level in endothelial cells; type: cell-based
# Procedure: as §1, §2
# VCAM-1 and ICAM-1 = test: Endothelial activation (VCAM-1 and ICAM-1) in endothelial cells; type: cell-based
# Procedure: as §1, §2
# HO-1 [4] = test: HO-1 expression in endothelial cells (western blotting, real-time PCR); type: cell-based
# Procedure: as §1, §3
# Nrf2 protein = target: T1, Nrf2 protein (Mus musculus, UniProt Q60795); test: CETSA in endothelial cells; type: binding; settings: ASP 40 μmol/L
# T1 construct: endogenous in cells
# T1 sequence (Q60795 whole entry): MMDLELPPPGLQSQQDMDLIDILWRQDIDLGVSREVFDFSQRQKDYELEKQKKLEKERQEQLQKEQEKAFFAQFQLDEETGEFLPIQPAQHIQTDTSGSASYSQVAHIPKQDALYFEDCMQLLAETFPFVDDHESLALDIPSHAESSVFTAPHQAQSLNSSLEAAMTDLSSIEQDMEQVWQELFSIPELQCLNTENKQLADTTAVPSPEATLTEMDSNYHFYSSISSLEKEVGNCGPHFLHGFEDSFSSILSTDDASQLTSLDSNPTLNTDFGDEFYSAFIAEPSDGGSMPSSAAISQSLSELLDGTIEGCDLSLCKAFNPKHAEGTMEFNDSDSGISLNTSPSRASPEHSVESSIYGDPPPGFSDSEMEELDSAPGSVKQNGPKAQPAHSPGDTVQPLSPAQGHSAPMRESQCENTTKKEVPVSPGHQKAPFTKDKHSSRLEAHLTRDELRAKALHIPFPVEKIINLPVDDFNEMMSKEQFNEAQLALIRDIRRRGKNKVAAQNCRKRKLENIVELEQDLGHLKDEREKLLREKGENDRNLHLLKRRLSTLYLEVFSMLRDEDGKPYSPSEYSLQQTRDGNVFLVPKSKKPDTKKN
# Procedure: The Nrf2 protein expression was normalized to total protein. P values were determined using One-way ANOVA. *p<0.05. Data represent means±SEM of 3 experiments.
# [5] = system: lipid droplets in obese mice livers; test: H&E and Oil Red O staining of obese mice livers; type: in vivo; settings: ASP 50 mg/kg oral gavage daily for seven weeks
# Procedure: as §3
# Npra, Hsl, Fas, Acc2 = test: Real-time PCR of lipid metabolism genes in obese mice livers; type: in vivo
# Procedure: as §3
# obese mice livers [6] = test: ATP levels in obese mice livers; type: in vivo
# Procedure: as §3
# HepG2 cells = test: ATP production in PA-treated HepG2 cells; type: cell-based
# Procedure: as §3
# SDHC = test: Real-time PCR of SDHC in PA-treated HepG2 cells; type: cell-based; settings: PA-treated HepG2 cells when Nrf2 is inhibited
# Procedure: as §3
# obese mice livers [7] = test: DHE staining of obese mice livers; type: in vivo
# Procedure: as §3
# Nrf2 [8] = test: Nrf2 nuclear translocation and protein level in obese mice livers; type: in vivo
# Procedure: as §3
# [9] = system: Ho-1, Sirt1, Sirt3, Sirt6 and Sod2; test: Real-time PCR of Nrf2 downstream genes in obese mice livers; type: in vivo
# Procedure: as §3
# Nrf2 [10] = test: Nrf2 nuclear translocation in palmitic acid-treated HepG2 cells; type: cell-based
# Procedure: as §3
# Nrf2/ARE = test: Dual-luciferase assay of ARE binding in PA-treated HepG2 cells; type: cell-based
# Procedure: as §3
# [11] = system: HO-1, SIRT1, SIRT6, and SOD2; test: Real-time PCR of Nrf2 downstream genes in PA-treated HepG2 cells; type: cell-based
# Procedure: as §3
# [12] = system: perirenal adipose tissues; test: Weight and sizes of perirenal adipose tissues in obese mice; type: in vivo
# Procedure: as §3
# primary adipocytes = test: Real-time PCR in primary adipocytes; type: cell-based, mice
# Procedure: Primary adipocytes were treated with ASP overnight. […] Data represent means±SEM of 4 mice. P values were determined using One-way ANOVA. *p<0.05.
# (§4) Primary adipocytes were treated with 40 μmol/L ASP (FIG. 22A) or different doses of ASP (FIG. 22B) for 24 hours. […] Scale bar, 50 μm (FIG. 22B). Data represent means±SEM of 4 experiments. P values were determined using One-way ANOVA. *p<0.05.
# as §3
# Nrf2 [13] = test: Nrf2 nuclear translocation in primary adipocytes (immunofluorescence); type: cell-based, mice; settings: 40 μmol/L ASP for 24 hours
# Procedure: as §4, §3
# [14] = obese mice aortae, ASP 50 mg/kg oral gavage daily for seven weeks
# [15] = endothelial cells under basal conditions
# [16] = 250 μmol/L PA-treated HepG2 cells for 16 hours
substance,measurement,setting,value
Asperuloside,acetylcholine-induced endothelium-dependent relaxations (EDRs),[1],prevents HFD-induced impairment of EDRs; also recorded: significantly reversed the impairments of endothelium-dependent relaxations; also recorded: significantly improved endothelial-dependent relaxations
same,endothelium-independent relaxations in response to sodium nitroprusside (SNP),[1],remain similar among different groups
same,ROS generation / oxidative stress (DHE staining),ROS,suppresses elevated ROS generation; also recorded: suppressed oxidative stress
same,VCAM-1 mRNA expression,"VCAM-1; aortas of obese mice, real-time PCR",decreases elevated expression of VCAM-1 and ICAM-1 mRNA
same,reduction of VCAM-1 expression,VCAM-1; [14],about 2 fold
same,increase of Nrf2 expression,Nrf2 [2]; [14],about 1.5 fold
same,Nrf2 mRNA expression level,"Nrf2 [2]; obese mice aortas, real-time PCR",increases mRNA expression level of Nrf2
same,EDRs,C57BL/6 mice aortae; ML385-treated aortas,fails to reverse impairment
same,EDRs,C57BL/6 mice aortae; endothelial-cell specific Nrf2 knockdown murine aortas,fails to reverse the impairment
same,acetylcholine-induced EDRs,"C57BL/6 mice aortae; IL-1β-treated aortas, ex vivo",prevents IL-1-induced impairment in acetylcholine-induced EDRs; also recorded: prevents IL-1β-impaired EDRs; also recorded: rescued IL-1β-impairs EDRs
same,acetylcholine-induced EDRs,"C57BL/6 mice aortae; IL-1β-treated, HO-1-inhibited (OB-24) aortas",fails to rescue the impairment; also recorded: failed to prevent endothelial dysfunction in HO-1 inhibited aortae
same,HO-1 expression (en-face immunofluorescence),HO-1 [3]; EC-specific knockdown of Nrf2,EC-specific knockdown of Nrf2 abolishes the upregulation of HO-1 by ASP treatment
same,HO-1 expression (en-face immunofluorescence),HO-1 [3]; OB-24-treated aortas,fails to increase HO-1 expression
same,endothelial HO-1 expression (en-face immunofluorescence),HO-1 [3]; inhibition of Nrf2/ARE binding (ML385),inhibition of Nrf2/ARE binding eliminates the endothelial upregulation of HO-1 by ASP treatment
same,ROS level,endothelial cells; HO-1-silencing cells,fails to decrease ROS level
same,oxidative stress,endothelial cells; endothelial cells,suppresses oxidative stress
same,endothelial activation,VCAM-1 and ICAM-1; HO-1-silencing (HO-1-siRNA transfected) endothelial cells,fails to decrease ROS level (FIG. 2E) or inhibit endothelial activation; also recorded: failed to prevent endothelial dysfunction in HO-1 inhibited aortae (FIGS. 2A-2D) and HO-1-siRNA transfected endothelial cells
same,overexpression of VCAM-1 and ICAM-1,VCAM-1 and ICAM-1; endothelial cells,inhibits overexpression of VCAM-1 and ICAM-1
same,HO-1 mRNA,"HO-1 [4]; IL-1β, ML385-treated cells",fails to restore IL-1β-mediated downregulation of HO-1 protein (FIG. 4B) and mRNA
same,HO-1 protein,"HO-1 [4]; IL-1β, ML385-treated cells",fails to restore IL-1β-mediated downregulation of HO-1 protein
same,HO-1 upregulation (western blotting),HO-1 [4]; Nrf2-silenced cells,ASP-induced upregulation of HO-1 is eliminated; also recorded: Nrf2 knockdown attenuated HO-1 upregulation by ASP
same,HO-1 expression (western blotting),HO-1 [4]; [15],dose-dependently upregulated HO-1 expression
same,HO-1 mRNA (real-time PCR),HO-1 [4]; [15],dose-dependently increases HO-1 mRNA
same,melting behavior of Nrf2 protein (CETSA),Nrf2 protein; 0.3 ng/mL IL-1β-treated endothelial cells,changes the melting behavior of Nrf2 protein
same,melting behavior of Nrf2 protein (CETSA),Nrf2 protein; [15],changes the melting behavior of Nrf2 protein
same,"accumulated lipid droplets (H&E, Oil Red O)",[5],attenuates obesity-induced accumulated lipid droplets
same,"mRNA expression levels of fatty acid synthesis-related genes, including Fas and Acc2","Npra, Hsl, Fas, Acc2",downregulated
same,"mRNA expression levels of lipolysis-related genes, Npra and Hsl","Npra, Hsl, Fas, Acc2","increases the mRNA expression levels of lipolysis-related genes, Npra and Hsl"
same,ATP levels,obese mice livers [6],increases ATP levels
same,production of ATP,HepG2 cells,restores the decreased production of ATP
same,production of ATP,HepG2 cells; inhibition of Nrf2,inhibition of Nrf2 eliminates the rescue effect of ASP
same,mRNA expression levels of SDHC,SDHC,fails to upregulate the mRNA expression levels of SDHC
same,oxidative stress (DHE staining),obese mice livers [7],suppresses oxidative stress in obese mice livers
same,Nrf2 nuclear translocation (immunofluorescence),Nrf2 [8]; obese mice livers,stimulates Nrf2 nuclear translocation in obese mice livers
same,Nrf2 protein level (western blot),Nrf2 [8]; obese mice livers,increased
same,increase of protein level of Nrf2 in the liver,"Nrf2 [8]; worded as embodiment, cf. FIG. 13B",about 3 fold
same,"gene expressions of Ho-1, Sirt1, Sirt3, Sirt6 and Sod2",[9]; obese mice livers,"upregulates gene expressions of Ho-1, Sirt1, Sirt3, Sirt6 and Sod2"
same,increase of HO-1 mRNA expression in the liver,"[9]; worded as embodiment, cf. FIG. 13C",about 2.5 fold
same,Nrf2 nuclear translocation (immunofluorescence),Nrf2 [10],stimulates Nrf2 nuclear translocation in palmitic acid-treated HepG2 cells
same,binding activity of ARE,Nrf2/ARE; [16],dose-dependently increases the binding activity of ARE
same,increase of Nrf2/ARE binding,"Nrf2/ARE; palmitic acid-impaired HepG2 cells, worded as embodiment, cf. FIG. 13E",about 2 fold
same,"mRNA expression of HO-1, SIRT1, SIRT6, and SOD2",[11]; [16],"dose-dependently increases mRNA expression of HO-1, SIRT1, SIRT6, and SOD2"
same,increase of HO-1 mRNA expression,"[11]; palmitic acid-impaired HepG2 cells, cf. FIG. 13F",at least 2 fold
same,ratio of perirenal adipose tissues to body weight,[12]; obese mice,decreased
same,sizes of adipocytes (H&E staining),[12]; obese mice,remarkably reduces the sizes of adipocytes
same,"decrease of perirenal adipose tissues in weight and sizes, average","[12]; worded as embodiment, cf. FIGS. 14A-14B",about 35%
same,mRNA expression levels of Nprc and Cd36,primary adipocytes; primary adipocytes treated with ASP overnight,dose-dependently decreases mRNA expression levels of Nprc (FIG. 21A) and Cd36
same,mRNA expression of Nrf2,"primary adipocytes; primary adipocytes, different doses of ASP for 24 hours",dose-dependently increases mRNA expression of Nrf2
same,increase of Nrf2 mRNA expression,"primary adipocytes; primary adipocytes, worded as embodiment, cf. FIG. 22B",at least 1.2 fold
same,Nrf2 nuclear translocation,Nrf2 [13],stimulates Nrf2 nuclear translocation in adipocytes
